pIC50, pKi: −log10 of the molar value. Calls of active or inactive are those of the source. The calls are words filed in the database; no cut-off is given here. Bounds are passed on as bounds.

For one test, the system named is MC-38. Kind of test: Antiproliferative activity against mouse MC38 cells after 72 hrs by CCK-8 assay. Type of test: functional. On the technique in general: Formazan colour is commonly taken as a measure of viable cells.
The next test addresses T1, Adenosine receptor A3 (Homo sapiens, UniProt P0DMS8).
T1 sequence (P0DMS8 whole entry): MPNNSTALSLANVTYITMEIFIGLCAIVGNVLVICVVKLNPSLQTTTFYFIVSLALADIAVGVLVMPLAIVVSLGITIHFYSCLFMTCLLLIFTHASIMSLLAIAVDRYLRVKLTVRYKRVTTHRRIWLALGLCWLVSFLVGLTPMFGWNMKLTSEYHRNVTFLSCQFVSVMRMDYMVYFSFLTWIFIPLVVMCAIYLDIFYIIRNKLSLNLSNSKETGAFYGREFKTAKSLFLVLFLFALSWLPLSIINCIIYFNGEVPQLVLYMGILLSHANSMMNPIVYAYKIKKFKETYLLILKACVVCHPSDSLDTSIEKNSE
As to the kind of experiment: Displacement of [3H]HEMADO from human A3AR incubated for 60 mins by scintillation counter analysis. (In general: Displacement assays read how much labelled ligand stays bound in the presence of the test substance.)

For another test, the system named is CT26. Kind of test: Antiproliferative activity against mouse CT26 cells after 72 hrs by CCK-8 assay. Format: functional.
Test [1] concerns the target T2, Protein deacetylase HDAC6 (Homo sapiens, UniProt Q9UBN7).
T2 sequence (Q9UBN7 whole entry): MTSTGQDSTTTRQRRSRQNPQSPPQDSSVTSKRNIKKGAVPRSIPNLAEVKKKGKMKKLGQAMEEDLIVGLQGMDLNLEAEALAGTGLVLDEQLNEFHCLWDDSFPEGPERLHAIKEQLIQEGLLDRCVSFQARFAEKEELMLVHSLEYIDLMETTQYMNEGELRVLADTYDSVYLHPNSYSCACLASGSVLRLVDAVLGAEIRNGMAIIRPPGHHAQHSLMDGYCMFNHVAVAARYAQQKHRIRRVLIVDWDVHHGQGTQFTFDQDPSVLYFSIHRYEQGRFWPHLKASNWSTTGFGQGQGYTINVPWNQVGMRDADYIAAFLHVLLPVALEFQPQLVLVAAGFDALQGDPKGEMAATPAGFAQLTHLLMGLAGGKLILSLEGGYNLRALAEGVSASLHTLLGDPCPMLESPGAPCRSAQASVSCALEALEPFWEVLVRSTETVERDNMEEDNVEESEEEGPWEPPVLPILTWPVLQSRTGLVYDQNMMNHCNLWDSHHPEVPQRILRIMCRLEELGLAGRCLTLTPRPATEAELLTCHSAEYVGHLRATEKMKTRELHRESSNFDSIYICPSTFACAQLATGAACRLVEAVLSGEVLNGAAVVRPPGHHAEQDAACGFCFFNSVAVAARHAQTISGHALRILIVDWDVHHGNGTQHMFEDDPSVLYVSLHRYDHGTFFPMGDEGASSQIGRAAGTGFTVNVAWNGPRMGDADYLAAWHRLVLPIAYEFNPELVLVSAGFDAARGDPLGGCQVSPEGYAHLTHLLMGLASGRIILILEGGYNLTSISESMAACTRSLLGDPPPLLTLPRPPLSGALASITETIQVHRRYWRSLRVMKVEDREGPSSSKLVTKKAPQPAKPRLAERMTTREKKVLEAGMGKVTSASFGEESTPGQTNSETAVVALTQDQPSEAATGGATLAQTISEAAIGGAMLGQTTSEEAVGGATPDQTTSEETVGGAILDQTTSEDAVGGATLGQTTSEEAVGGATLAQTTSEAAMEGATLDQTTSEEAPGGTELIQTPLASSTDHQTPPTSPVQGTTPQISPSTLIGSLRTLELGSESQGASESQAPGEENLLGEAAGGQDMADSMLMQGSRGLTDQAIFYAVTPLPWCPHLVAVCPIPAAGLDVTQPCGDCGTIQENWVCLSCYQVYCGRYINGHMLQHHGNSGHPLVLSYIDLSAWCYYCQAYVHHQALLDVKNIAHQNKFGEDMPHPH
As to the kind of experiment: Inhibition of HDAC6 (unknown origin) using trypsin and LGK(Ac)-AMC as substrates incubated for 1 hr and measured by fluorescence assay.

In another test the target is T3, Histone deacetylase 8 (Homo sapiens, UniProt Q9BY41).
T3 sequence (Q9BY41 whole entry): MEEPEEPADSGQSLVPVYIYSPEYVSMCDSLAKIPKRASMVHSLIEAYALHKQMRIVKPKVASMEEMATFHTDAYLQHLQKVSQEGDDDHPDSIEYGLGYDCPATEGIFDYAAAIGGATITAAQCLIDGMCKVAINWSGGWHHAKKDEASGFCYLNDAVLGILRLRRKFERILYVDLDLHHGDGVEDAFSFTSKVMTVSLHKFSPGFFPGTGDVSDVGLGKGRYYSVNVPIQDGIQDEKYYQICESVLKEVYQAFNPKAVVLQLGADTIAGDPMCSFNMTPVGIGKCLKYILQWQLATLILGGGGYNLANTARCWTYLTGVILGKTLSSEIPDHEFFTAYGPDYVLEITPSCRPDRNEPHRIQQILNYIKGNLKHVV
Kind of test: Inhibition of HDAC8 (unknown origin) using trypsin and LGK(Ac)-AMC as substrates incubated for 1 hr and measured by fluorescence assay.

In another test the target is Histone deacetylase 2 (Homo sapiens, UniProt Q92769). Kind of test: Inhibition of HDAC2 (unknown origin) using trypsin and LGK(Ac)-AMC as substrates incubated for 1 hr and measured by fluorescence assay.
The next test deals with T4, Adenosine receptor A2b (Homo sapiens, UniProt P29275).
T4 sequence (P29275 whole entry): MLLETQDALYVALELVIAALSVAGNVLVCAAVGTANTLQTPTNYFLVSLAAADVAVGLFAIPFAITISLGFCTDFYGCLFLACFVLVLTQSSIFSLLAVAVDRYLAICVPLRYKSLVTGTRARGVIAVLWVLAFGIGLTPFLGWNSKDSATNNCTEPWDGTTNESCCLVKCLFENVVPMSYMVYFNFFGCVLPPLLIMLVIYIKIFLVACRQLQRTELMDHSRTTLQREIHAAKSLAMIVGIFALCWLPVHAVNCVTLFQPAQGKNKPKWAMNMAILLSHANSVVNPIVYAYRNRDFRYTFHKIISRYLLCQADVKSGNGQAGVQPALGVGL
As to the kind of experiment: Displacement of [3H]DPCPX from human A2BAR incubated for 60 mins by scintillation counter analysis.

A further test concerns the target T5, Adenosine receptor A1 (Homo sapiens, UniProt P30542).
T5 sequence (P30542 whole entry): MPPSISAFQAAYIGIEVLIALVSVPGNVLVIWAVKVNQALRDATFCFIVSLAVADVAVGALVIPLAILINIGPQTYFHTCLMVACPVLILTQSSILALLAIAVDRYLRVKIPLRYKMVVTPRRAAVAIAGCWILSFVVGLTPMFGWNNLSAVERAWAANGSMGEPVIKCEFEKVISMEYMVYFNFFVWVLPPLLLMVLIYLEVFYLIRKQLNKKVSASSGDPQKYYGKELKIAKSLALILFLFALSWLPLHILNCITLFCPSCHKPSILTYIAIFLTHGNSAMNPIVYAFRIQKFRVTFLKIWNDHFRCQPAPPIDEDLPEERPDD
Kind of test: Displacement of [3H]DPCPX from human A1AR incubated for 60 mins by scintillation counter analysis.

The next test addresses Adenosine receptor A2a (Homo sapiens, UniProt P29274). As to the kind of experiment: Displacement of [3H][…] from human A2AAR incubated for 60 mins by scintillation counter analysis.
The next test has as its target Histone deacetylase 3 (Homo sapiens, UniProt O15379). As to the kind of experiment: Inhibition of HDAC3 (unknown origin) using trypsin and LGK(Ac)-AMC as substrates incubated for 1 hr and measured by fluorescence assay.
Test [2] concerns MC38. Kind of test: Inhibition of HDAC in mouse MC38 cells assessed as increase in H3 acetylation at 0.1 to 10 uM measured by western blot analysis. Format: cell-based. As to conditions: dose 0.1-10 µM.
The target of the next test is Histone deacetylase 1 (Homo sapiens, UniProt Q13547). As to the kind of experiment: Inhibition of HDAC1 (unknown origin) using trypsin and LGK(Ac)-AMC as substrates incubated for 1 hr and measured by fluorescence assay.
Test [3] relates to MC38. Kind of test: Inhibition of HDAC in mouse MC38 cells assessed as increase in H4 acetylation at 0.1 to 10 uM measured by western blot analysis. As to conditions: dose 0.1-10 µM. Type of test: cell-based. On the technique in general: A western blot detects proteins with antibodies after separation by electrophoresis.

Sequence of Histone deacetylase 3 (O15379 whole entry): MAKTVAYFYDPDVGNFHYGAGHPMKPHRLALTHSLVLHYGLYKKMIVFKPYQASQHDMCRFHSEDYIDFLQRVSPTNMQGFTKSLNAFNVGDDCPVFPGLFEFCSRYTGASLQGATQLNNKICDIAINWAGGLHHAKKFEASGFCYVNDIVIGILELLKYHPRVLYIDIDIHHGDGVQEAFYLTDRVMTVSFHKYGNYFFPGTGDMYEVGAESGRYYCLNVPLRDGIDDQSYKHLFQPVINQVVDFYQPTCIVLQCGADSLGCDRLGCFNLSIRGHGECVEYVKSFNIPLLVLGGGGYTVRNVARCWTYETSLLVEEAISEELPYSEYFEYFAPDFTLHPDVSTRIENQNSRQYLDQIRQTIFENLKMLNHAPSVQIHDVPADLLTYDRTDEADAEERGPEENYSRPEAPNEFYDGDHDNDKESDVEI
Sequence of Histone deacetylase 1 (Q13547 whole entry): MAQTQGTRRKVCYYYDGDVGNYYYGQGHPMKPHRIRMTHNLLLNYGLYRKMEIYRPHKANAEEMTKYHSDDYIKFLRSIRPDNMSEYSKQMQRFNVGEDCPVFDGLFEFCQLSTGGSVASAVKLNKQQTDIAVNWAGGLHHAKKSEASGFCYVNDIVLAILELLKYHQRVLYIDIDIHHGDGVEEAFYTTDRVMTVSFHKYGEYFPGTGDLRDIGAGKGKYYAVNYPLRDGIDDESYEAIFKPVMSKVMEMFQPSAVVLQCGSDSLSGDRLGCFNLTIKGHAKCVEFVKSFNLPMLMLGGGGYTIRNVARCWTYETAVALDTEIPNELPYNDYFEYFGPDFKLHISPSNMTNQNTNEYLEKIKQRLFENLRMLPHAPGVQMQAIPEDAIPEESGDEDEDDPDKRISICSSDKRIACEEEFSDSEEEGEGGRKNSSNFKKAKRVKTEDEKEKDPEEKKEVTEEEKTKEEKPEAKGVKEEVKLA
Sequence of Histone deacetylase 2 (Q92769 whole entry): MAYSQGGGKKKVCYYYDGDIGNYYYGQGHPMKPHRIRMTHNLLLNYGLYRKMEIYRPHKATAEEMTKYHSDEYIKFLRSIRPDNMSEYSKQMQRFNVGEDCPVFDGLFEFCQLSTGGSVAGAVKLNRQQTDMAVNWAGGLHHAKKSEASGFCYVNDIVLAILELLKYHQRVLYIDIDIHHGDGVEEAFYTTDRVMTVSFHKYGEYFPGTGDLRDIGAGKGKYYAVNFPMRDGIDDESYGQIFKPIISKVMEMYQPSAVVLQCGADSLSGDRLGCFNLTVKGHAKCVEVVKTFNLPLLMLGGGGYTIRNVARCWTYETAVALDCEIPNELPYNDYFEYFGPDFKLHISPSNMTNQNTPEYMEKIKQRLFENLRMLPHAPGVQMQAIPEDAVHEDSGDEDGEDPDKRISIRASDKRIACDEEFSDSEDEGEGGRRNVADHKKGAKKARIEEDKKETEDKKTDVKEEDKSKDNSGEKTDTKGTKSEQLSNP
Sequence of Adenosine receptor A2a (P29274 whole entry): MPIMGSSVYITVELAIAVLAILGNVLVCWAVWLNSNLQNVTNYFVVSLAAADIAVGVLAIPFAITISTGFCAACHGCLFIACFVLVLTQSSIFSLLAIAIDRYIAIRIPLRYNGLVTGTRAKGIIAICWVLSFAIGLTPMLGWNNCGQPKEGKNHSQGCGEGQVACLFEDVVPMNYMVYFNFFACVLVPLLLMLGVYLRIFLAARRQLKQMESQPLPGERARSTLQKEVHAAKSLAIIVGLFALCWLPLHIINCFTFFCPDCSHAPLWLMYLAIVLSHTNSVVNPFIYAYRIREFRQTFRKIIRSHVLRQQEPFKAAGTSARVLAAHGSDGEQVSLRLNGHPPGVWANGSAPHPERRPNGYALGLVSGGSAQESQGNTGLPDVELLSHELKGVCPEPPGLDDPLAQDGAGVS

As a reminder, the GI50 is the concentration at which growth is held to half of that of the control. Read a high GI50 as lower sensitivity of the cells. In general, pKi refers to the Ki on a negative log10 scale, so that one unit is a factor of ten. As usually defined, the pIC50 is the IC50 on a negative log10 scale, so that one unit is a factor of ten. High values mean a low IC50, low ones a high IC50. As to `Nc1nc(-c2ccco2)c2cnn(Cc3cccc(OCCCCCCC(=O)NO)c3)c2n1`, the concentration for 50% growth inhibition (GI50) with MC-38 was determined as 12200 nM; with CT26, 12600 nM. The negative-log Ki (pKi) on Adenosine receptor A3 was under 5.00; at Adenosine receptor A2b it was 6.29; at Adenosine receptor A1, 6.98; at Adenosine receptor A2a, 7.99. The pIC50 in test [1] is 8.68; against Histone deacetylase 8 it was 5.85; against Histone deacetylase 2, 7.80; against Histone deacetylase 3 it was 7.87; at Histone deacetylase 1 it was 7.73. Further, the inhibition entry in the test with MC38 [2] and with MC38 [3] was “Active” each time.

For the origin of these results see ChEMBL document CHEMBL5154845, “Dual-acting antitumor agents targeting the A2A adenosine receptor and histone deacetylases: Design and synthesis of 4-(furan-2-yl)-1H-pyrazolo[3,4-d]pyrimidin-6-amine derivatives” (Eur J Med Chem, 2022).
